Data from ChEMBL document CHEMBL2203238, “Hit to Lead optimization of a novel class of squarate-containing polo-like kinases inhibitors” (Bioorg Med Chem Lett, 2012).

Legend:
[1] = target: Tyrosine-protein kinase Fyn (Homo sapiens, UniProt P06241); test: Inhibition of recombinant FYN after 1 hr by scintillation counter analysis in presence of gamma-[33P]ATP
[2] = target: Serine/threonine-protein kinase PLK2 (Homo sapiens, UniProt Q9NYY3); test: Inhibition of recombinant PLK2 after 1 hr by scintillation counter analysis in presence of gamma-[33P]ATP
[3] = target: Proto-oncogene tyrosine-protein kinase Src (Homo sapiens, UniProt P12931); test: Inhibition of recombinant SRC after 1 hr by scintillation counter analysis in presence of gamma-[33P]ATP
[4] = target: Serine/threonine-protein kinase 3 (Homo sapiens, UniProt Q13188); test: Inhibition of recombinant MST2 after 1 hr by scintillation counter analysis in presence of gamma-[33P]ATP
[5] = target: Serine/threonine-protein kinase Chk1 (Homo sapiens, UniProt O14757); test: Inhibition of recombinant CHK1 after 1 hr by scintillation counter analysis in presence of gamma-[33P]ATP
[6] = target: Vascular endothelial growth factor receptor 1 (Homo sapiens, UniProt P17948); test: Inhibition of recombinant FLT1 after 1 hr by scintillation counter analysis in presence of gamma-[33P]ATP
[7] = target: BDNF/NT-3 growth factors receptor (Homo sapiens, UniProt Q16620); test: Inhibition of recombinant TRKB after 1 hr by scintillation counter analysis in presence of gamma-[33P]ATP
[8] = target: Interleukin-1 receptor-associated kinase 4 (Homo sapiens, UniProt Q9NWZ3); test: Inhibition of recombinant IRAK4 after 1 hr by scintillation counter analysis in presence of gamma-[33P]ATP
[9] = target: Calcium/calmodulin-dependent protein kinase type IV (Homo sapiens, UniProt Q16566); test: Inhibition of recombinant CAMK4 after 1 hr by scintillation counter analysis in presence of gamma-[33P]ATP
[10] = Oral bioavailability in mouse; assay type: ADME, organism-based; conditions: in vivo
[11] = target: Mitogen-activated protein kinase 13 (Homo sapiens, UniProt O15264); test: Inhibition of recombinant P38delta after 1 hr by scintillation counter analysis in presence of gamma-[33P]ATP
[12] = target: Serine/threonine-protein kinase D2 (Homo sapiens, UniProt Q9BZL6); test: Inhibition of recombinant PKD2 after 1 hr by scintillation counter analysis in presence of gamma-[33P]ATP
[13] = target: Cell division control protein 42 homolog (Homo sapiens, UniProt P60953); test: Inhibition of recombinant CDC42 after 1 hr by scintillation counter analysis in presence of gamma-[33P]ATP
[14] = target: Protein kinase C delta type (Homo sapiens, UniProt Q05655); test: Inhibition of recombinant PKCdelta after 1 hr by scintillation counter analysis in presence of gamma-[33P]ATP
[15] = target: Serine/threonine-protein kinase pim-2 (Homo sapiens, UniProt Q9P1W9); test: Inhibition of recombinant PIM2 after 1 hr by scintillation counter analysis in presence of gamma-[33P]ATP
[16] = target: Macrophage colony-stimulating factor 1 receptor (Homo sapiens, UniProt P07333); test: Inhibition of recombinant CSF1R after 1 hr by scintillation counter analysis in presence of gamma-[33P]ATP
[17] = target: RAC-gamma serine/threonine-protein kinase (Homo sapiens, UniProt Q9Y243); test: Inhibition of recombinant AKT3 after 1 hr by scintillation counter analysis in presence of gamma-[33P]ATP
[18] = target: Serine/threonine-protein kinase Nek2 (Homo sapiens, UniProt P51955); test: Inhibition of recombinant NEK2 after 1 hr by scintillation counter analysis in presence of gamma-[33P]ATP
[19] = target: Receptor tyrosine-protein kinase erbB-4 (Homo sapiens, UniProt Q15303); test: Inhibition of recombinant ERBB4 after 1 hr by scintillation counter analysis in presence of gamma-[33P]ATP
[20] = target: RAC-alpha serine/threonine-protein kinase (Homo sapiens, UniProt P31749); test: Inhibition of recombinant AKT1 after 1 hr by scintillation counter analysis in presence of gamma-[33P]ATP
[21] = target: Tyrosine-protein kinase JAK2 (Homo sapiens, UniProt O60674); test: Inhibition of recombinant JAK2 after 1 hr by scintillation counter analysis in presence of gamma-[33P]ATP
[22] = target: Cyclin-dependent kinase 5 (Homo sapiens, UniProt Q00535); test: Inhibition of recombinant CDK5 after 1 hr by scintillation counter analysis in presence of gamma-[33P]ATP
[23] = target: RAC-beta serine/threonine-protein kinase (Homo sapiens, UniProt P31751); test: Inhibition of recombinant AKT2 after 1 hr by scintillation counter analysis in presence of gamma-[33P]ATP
[24] = target: Fibroblast growth factor receptor 3 (Homo sapiens, UniProt P22607); test: Inhibition of recombinant FGFR3 after 1 hr by scintillation counter analysis in presence of gamma-[33P]ATP
MIA PaCa-2 = test: Antitumor activity against human MIAPaCa2 cells xenografted in SCID mouse assessed as tumor growth inhibition at 100 mg/kg/day, po measured on day 35 relative to vehicle-treated control; assay type: functional; conditions: MIA PaCa-2, 840 h, read-out: TGI
[25] = target: Receptor-type tyrosine-protein kinase FLT3 (Homo sapiens, UniProt P36888); test: Inhibition of recombinant FLT3 after 1 hr by scintillation counter analysis in presence of gamma-[33P]ATP
[26] = target: Non-receptor tyrosine-protein kinase TYK2 (Homo sapiens, UniProt P29597); test: Inhibition of recombinant TYK2 after 1 hr by scintillation counter analysis in presence of gamma-[33P]ATP
[27] = target: Tyrosine-protein kinase Lyn (Homo sapiens, UniProt P07948); test: Inhibition of recombinant LYN after 1 hr by scintillation counter analysis in presence of gamma-[33P]ATP
[28] = Half life in mouse, iv; assay type: ADME, organism-based; conditions: in vivo
[29] = target: Serine/threonine-protein kinase PLK1 (Homo sapiens, UniProt P53350); test: Inhibition of recombinant GST-tagged PLK1 using biotin-ahx-AKMETTFYDDALNASFLPSEKKK-amide as substrate after 30 mins by scintillation counting analysis in presence of gamma-[33P]ATP
[30] = Inhibition of recombinant CK2 after 1 hr by scintillation counter analysis in presence of gamma-[33P]ATP
Mus musculus = test: Toxicity in SCID mouse xenografted with human MIAPaCa2 cells assessed as body weight loss at 100 mg/kg/day, po measured on day 26 to day 44; assay type: organism-based, MIA PaCa-2; set-up: route oral; conditions: in vivo
[31] = target: Rho-associated protein kinase 1 (Homo sapiens, UniProt Q13464); test: Inhibition of recombinant ROCK1 after 1 hr by scintillation counter analysis in presence of gamma-[33P]ATP
[32] = Cmax in mouse at 50 mg/kg, po measured at 1 hr; assay type: ADME, organism-based; set-up: dose 50 mg/kg, route oral; conditions: in vivo
[33] = target: Casein kinase I isoform delta (Homo sapiens, UniProt P48730); test: Inhibition of recombinant CK1delta after 1 hr by scintillation counter analysis in presence of gamma-[33P]ATP

Chain of Cyclin-dependent kinase 5 (Q00535 whole entry): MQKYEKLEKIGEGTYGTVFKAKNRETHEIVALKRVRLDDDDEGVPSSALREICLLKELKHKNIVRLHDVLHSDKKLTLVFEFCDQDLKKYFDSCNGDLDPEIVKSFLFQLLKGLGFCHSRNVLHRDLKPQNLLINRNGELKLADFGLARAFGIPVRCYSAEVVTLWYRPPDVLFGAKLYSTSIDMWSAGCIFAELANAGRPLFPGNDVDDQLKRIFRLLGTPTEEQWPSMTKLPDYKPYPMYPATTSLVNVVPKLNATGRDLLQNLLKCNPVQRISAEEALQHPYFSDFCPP
Chain of Serine/threonine-protein kinase Chk1 (O14757 whole entry): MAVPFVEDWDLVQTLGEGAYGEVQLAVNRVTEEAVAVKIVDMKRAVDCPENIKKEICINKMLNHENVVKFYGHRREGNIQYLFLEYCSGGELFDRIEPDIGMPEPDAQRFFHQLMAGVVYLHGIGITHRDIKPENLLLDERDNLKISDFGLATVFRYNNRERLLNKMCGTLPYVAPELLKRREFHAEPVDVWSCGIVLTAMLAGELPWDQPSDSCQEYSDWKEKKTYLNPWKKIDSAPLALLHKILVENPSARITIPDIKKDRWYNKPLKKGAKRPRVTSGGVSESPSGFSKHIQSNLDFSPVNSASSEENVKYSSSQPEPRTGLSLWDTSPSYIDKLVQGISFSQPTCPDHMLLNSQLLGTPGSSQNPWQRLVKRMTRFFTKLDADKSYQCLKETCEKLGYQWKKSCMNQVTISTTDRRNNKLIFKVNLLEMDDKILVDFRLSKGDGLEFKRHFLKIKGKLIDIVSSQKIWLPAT
Chain of Macrophage colony-stimulating factor 1 receptor (P07333 whole entry): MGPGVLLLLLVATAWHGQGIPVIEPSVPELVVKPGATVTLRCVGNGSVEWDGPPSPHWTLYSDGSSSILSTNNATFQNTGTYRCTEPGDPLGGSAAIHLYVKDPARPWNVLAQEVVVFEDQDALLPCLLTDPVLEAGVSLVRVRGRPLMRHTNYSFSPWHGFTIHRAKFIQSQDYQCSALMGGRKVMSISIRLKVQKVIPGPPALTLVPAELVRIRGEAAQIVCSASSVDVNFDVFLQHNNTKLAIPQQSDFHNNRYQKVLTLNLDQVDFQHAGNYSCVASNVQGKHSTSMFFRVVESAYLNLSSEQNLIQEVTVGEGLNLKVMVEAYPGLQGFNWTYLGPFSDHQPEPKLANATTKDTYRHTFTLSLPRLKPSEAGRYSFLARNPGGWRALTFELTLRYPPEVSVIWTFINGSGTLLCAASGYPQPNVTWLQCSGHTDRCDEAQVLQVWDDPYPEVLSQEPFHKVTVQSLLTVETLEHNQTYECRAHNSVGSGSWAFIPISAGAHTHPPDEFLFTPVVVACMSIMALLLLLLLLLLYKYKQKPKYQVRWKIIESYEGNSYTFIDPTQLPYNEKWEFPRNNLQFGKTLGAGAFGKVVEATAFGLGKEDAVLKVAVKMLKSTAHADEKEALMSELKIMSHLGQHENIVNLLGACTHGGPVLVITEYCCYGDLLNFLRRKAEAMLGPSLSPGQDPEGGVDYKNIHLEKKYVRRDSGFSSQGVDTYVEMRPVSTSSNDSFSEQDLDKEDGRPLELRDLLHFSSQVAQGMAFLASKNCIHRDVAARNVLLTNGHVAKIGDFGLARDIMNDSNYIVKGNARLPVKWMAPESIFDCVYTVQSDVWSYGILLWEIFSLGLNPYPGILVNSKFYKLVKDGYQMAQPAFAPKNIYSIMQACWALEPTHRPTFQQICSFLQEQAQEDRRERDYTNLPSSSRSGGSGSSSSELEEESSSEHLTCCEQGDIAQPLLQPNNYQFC
Chain of Protein kinase C delta type (Q05655 whole entry): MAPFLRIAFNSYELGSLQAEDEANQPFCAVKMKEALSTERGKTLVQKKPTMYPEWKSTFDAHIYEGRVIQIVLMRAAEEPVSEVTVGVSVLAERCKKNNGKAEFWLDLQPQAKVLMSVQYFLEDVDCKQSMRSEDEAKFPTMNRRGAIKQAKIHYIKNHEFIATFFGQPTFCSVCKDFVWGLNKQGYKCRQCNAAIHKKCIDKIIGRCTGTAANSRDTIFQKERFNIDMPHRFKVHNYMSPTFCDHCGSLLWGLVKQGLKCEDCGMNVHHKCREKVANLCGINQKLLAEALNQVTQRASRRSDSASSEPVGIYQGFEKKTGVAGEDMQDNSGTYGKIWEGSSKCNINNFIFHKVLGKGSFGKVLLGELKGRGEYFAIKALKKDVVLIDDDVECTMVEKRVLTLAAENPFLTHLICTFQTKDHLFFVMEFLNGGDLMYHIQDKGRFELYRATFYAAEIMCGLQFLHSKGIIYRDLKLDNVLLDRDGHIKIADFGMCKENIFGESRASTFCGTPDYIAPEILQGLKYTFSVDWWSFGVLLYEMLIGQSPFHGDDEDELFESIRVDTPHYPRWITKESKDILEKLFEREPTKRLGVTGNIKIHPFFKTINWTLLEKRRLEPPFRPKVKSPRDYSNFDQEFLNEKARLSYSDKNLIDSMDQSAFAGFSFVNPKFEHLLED
Chain of RAC-beta serine/threonine-protein kinase (P31751 whole entry): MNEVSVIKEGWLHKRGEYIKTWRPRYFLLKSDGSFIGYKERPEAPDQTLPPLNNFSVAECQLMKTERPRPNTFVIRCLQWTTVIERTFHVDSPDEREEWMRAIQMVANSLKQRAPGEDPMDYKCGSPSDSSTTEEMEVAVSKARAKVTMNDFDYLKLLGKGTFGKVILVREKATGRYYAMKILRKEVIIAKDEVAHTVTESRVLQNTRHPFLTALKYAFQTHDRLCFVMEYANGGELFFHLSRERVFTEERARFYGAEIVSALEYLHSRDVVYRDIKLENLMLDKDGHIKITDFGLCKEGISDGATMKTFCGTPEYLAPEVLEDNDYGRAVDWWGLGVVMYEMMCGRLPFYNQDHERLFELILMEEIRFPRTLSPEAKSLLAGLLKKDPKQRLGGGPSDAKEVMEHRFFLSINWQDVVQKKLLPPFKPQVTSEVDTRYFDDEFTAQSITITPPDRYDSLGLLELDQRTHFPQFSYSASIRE
Chain of Tyrosine-protein kinase Lyn (P07948 whole entry): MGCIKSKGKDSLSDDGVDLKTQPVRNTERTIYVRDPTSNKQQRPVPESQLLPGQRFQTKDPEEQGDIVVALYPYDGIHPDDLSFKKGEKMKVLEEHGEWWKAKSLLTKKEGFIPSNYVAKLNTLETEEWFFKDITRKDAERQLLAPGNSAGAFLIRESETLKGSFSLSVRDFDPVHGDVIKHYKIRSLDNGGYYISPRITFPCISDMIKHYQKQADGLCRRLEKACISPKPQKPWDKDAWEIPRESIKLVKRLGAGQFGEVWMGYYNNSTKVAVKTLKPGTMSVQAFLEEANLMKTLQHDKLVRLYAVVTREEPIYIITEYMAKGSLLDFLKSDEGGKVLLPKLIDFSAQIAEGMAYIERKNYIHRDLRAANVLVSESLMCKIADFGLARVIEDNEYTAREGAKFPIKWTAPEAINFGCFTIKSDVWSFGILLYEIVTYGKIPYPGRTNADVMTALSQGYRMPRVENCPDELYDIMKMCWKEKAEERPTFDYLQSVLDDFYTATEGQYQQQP
Chain of Serine/threonine-protein kinase Nek2 (P51955 whole entry): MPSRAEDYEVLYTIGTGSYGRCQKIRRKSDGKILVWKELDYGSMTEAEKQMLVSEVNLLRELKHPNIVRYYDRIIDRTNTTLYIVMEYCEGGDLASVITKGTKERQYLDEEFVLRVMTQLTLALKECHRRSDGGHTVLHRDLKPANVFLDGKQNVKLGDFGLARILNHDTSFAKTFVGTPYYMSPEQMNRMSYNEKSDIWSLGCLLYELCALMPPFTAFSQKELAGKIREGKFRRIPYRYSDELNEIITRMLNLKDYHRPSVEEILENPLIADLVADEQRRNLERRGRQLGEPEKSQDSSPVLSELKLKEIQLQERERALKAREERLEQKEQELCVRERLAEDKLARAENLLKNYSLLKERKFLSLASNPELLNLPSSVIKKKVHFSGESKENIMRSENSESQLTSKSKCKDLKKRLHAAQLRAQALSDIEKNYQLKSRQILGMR
Chain of Mitogen-activated protein kinase 13 (O15264 whole entry): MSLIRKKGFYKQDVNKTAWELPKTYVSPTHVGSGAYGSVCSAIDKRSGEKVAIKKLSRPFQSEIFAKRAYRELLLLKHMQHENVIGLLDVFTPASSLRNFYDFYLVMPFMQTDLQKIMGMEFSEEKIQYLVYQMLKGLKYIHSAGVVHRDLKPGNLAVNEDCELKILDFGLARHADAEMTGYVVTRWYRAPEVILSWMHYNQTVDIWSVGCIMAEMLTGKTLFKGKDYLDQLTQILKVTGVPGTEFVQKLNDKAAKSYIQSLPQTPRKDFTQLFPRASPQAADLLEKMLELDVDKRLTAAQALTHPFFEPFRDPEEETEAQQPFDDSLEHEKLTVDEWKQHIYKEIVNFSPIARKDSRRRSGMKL
Chain of RAC-alpha serine/threonine-protein kinase (P31749 whole entry): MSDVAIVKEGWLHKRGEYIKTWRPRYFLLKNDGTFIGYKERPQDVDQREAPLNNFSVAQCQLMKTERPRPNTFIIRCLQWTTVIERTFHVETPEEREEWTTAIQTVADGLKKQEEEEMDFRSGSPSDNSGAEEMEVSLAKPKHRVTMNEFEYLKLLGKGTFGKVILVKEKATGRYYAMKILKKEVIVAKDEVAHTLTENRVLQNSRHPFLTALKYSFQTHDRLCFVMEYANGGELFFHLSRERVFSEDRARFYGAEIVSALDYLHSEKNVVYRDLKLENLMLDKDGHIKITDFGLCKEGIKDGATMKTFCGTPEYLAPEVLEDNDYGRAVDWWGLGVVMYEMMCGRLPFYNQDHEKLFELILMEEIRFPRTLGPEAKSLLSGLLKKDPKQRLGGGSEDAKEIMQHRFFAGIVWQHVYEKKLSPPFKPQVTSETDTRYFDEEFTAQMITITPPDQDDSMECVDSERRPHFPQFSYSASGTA
Chain of Cell division control protein 42 homolog (P60953 whole entry): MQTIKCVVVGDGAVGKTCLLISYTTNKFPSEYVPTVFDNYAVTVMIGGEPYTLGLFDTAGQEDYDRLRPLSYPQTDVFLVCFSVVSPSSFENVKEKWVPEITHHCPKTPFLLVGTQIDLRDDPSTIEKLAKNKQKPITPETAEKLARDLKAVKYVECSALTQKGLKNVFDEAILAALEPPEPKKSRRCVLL

`CC(C)(C)Nc1c(Nc2ccnc(Nc3ccc(-c4ccncc4)cc3)n2)c(=O)c1=O` showed a Ki [1] of 328 nM, a Ki [2] of 2 nM and a Ki [3] greater than 1900 nM. For the same compound, the Ki [4] was 2900 nM, the Ki [5] was 167 nM and the Ki [6] was 14 nM. It also gave a Ki [7] greater than 4500 nM, a Ki [8] greater than 9900 nM and a Ki [9] greater than 8500 nM. For the same compound, the bioavailability [10] was 100%, the Ki [11] was 5900 nM and the Ki [12] was 175 nM. For the same compound, the Ki [13] was greater than 4400 nM, the Ki [14] was 7.9 nM and the Ki [15] was greater than 1400 nM. It also gave a Ki [16] of 2100 nM, a Ki [17] greater than 9000 nM and a Ki [18] greater than 9200 nM. The Ki [19] was greater than 3700 nM, the Ki [20] was greater than 8000 nM and the Ki [21] was 920 nM. It also gave a Ki [22] of 416 nM, a Ki [23] greater than 8000 nM and a Ki [24] of 1400 nM. It also gave an inhibition in vivo at 100 mg/kg/day (MIA PaCa-2) of 38%, a Ki [25] of 494 nM and a Ki [26] greater than 1900 nM. It also gave a Ki [27] greater than 1600 nM, a half-life [28] of 20.4 min and a Ki [29] of 5 nM. The Ki [30] was 276 nM, the Activity (Mus musculus) was “Non-toxic” and the Ki [31] was 220 nM. The Cmax [32] was 5.4 µM and the Ki [33] was greater than 7800 nM.
